Experimental data reported in ChEMBL document CHEMBL3885881, “DrugMatrix”.

Species: Rattus norvegicus
Experiment: DrugMatrix - Regimen: Daily Repeat
Assay type: toxicity, organism-based, Sprague-Dawley
Parameters: regimen Daily Repeat, gender Male, age 6-8 weeks
Settings: in vivo, po, route oral GAVAGE, vehicle .5 % CMC; for ABSOLUTE BASOPHIL / ABSOLUTE EOSINOPHIL / ABSOLUTE LYMPHOCYTE / ABSOLUTE MONOCYTE / ABSOLUTE SEGMENTED NEUTROPHIL / BASOPHIL / EOSINOPHIL / ERYTHROCYTE COUNT / HEMATOCRIT / HEMOGLOBIN / LEUKOCYTE COUNT / LYMPHOCYTE / MEAN CORPUSCULAR HEMOGLOBIN / MEAN CORPUSCULAR HEMOGLOBIN CONCENTRATION / MEAN CORPUSCULAR VOLUME / MONOCYTE / NEUTROPHIL / NUCLEATED RED BLOOD CELLS / PLATELET COUNT: tissue Blood; for ALANINE AMINOTRANSFERASE / ALBUMIN / ALKALINE PHOSPHATASE / ASPARTATE AMINOTRANSFERASE / BLOOD UREA NITROGEN / CARBON DIOXIDE / CHLORIDE / CHOLESTEROL / CREATINE PHOSPHOKINASE / CREATININE / GLUCOSE / LACTATE DEHYDROGENASE / LIPASE / PHOSPHORUS / POTASSIUM / SODIUM / TOTAL BILIRUBIN / TOTAL PROTEIN / URIC ACID: tissue Plasma
[1] = 0 mg/kg, 72 h, dose level Control, time 3 day
[2] = 0 mg/kg, 120 h, dose level Control, time 5 day
[3] = 10 mg/kg, 72 h, dose level Low, time 3 day

O=C1CN=C(c2ccccc2Cl)c2cc([N+](=O)[O-])ccc2N1 [CLONAZEPAM]
ABSOLUTE BASOPHIL [1]: 0 CELLS/uL
ABSOLUTE EOSINOPHIL [1]: 0 CELLS/uL
ABSOLUTE LYMPHOCYTE [1]: 12191.17 CELLS/uL
ABSOLUTE MONOCYTE [1]: 183.17 CELLS/uL
ABSOLUTE SEGMENTED NEUTROPHIL [1]: 1192.33 CELLS/uL
BASOPHIL [1]: 0%
EOSINOPHIL [1]: 0%
ERYTHROCYTE COUNT [1]: 5.51 x10E6/uL
HEMATOCRIT [1]: 35.45%
HEMOGLOBIN [1]: 13.82 G/DL
LEUKOCYTE COUNT [1]: 13.57 x10E3/uL
LYMPHOCYTE [1]: 89.83%
MEAN CORPUSCULAR HEMOGLOBIN [1]: 25.1 pg
MEAN CORPUSCULAR HEMOGLOBIN CONCENTRATION [1]: 38.98 G/DL
MEAN CORPUSCULAR VOLUME [1]: 64.42 fL
MONOCYTE [1]: 1.33%
NEUTROPHIL [1]: 8.83%
NUCLEATED RED BLOOD CELLS [1]: 0 /100WBC
PLATELET COUNT [1]: 1118.17 x10E3/uL
ALANINE AMINOTRANSFERASE [1]: 55 u/L
ALBUMIN [1]: 4.15 G/DL
ALKALINE PHOSPHATASE [1]: 449.5 u/L
ASPARTATE AMINOTRANSFERASE [1]: 112.83 u/L
BLOOD UREA NITROGEN [1]: 17.33 mg/dL
CARBON DIOXIDE [1]: 29.5 mmol/L
CHLORIDE [1]: 101 MEQ/L
CHOLESTEROL [1]: 70 mg/dL
CREATINE PHOSPHOKINASE [1]: 1325.83 u/L
CREATININE [1]: 0.18 mg/dL
GLUCOSE [1]: 171.5 mg/dL
LACTATE DEHYDROGENASE [1]: 386 u/L
LIPASE [1]: 10 u/L
PHOSPHORUS [1]: 11.57 mg/dL
POTASSIUM [1]: 6.21 MEQ/L
SODIUM [1]: 141.65 MEQ/L
TOTAL BILIRUBIN [1]: 0.15 mg/dL
TOTAL PROTEIN [1]: 5.75 G/DL
URIC ACID [1]: 1.28 mg/dL
ABSOLUTE BASOPHIL [2]: 0 CELLS/uL
ABSOLUTE EOSINOPHIL [2]: 138.17 CELLS/uL
ABSOLUTE LYMPHOCYTE [2]: 13283.17 CELLS/uL
ABSOLUTE MONOCYTE [2]: 303.83 CELLS/uL
ABSOLUTE SEGMENTED NEUTROPHIL [2]: 1308.17 CELLS/uL
BASOPHIL [2]: 0%
EOSINOPHIL [2]: 1%
ERYTHROCYTE COUNT [2]: 5.32 x10E6/uL
HEMATOCRIT [2]: 33.8%
HEMOGLOBIN [2]: 13.63 G/DL
LEUKOCYTE COUNT [2]: 15.03 x10E3/uL
LYMPHOCYTE [2]: 88.33%
MEAN CORPUSCULAR HEMOGLOBIN [2]: 25.68 pg
MEAN CORPUSCULAR HEMOGLOBIN CONCENTRATION [2]: 40.35 G/DL
MEAN CORPUSCULAR VOLUME [2]: 63.67 fL
MONOCYTE [2]: 1.83%
NEUTROPHIL [2]: 8.83%
NUCLEATED RED BLOOD CELLS [2]: 0 /100WBC
PLATELET COUNT [2]: 1097.5 x10E3/uL
ALANINE AMINOTRANSFERASE [2]: 54.5 u/L
ALBUMIN [2]: 4.27 G/DL
ALKALINE PHOSPHATASE [2]: 337 u/L
ASPARTATE AMINOTRANSFERASE [2]: 94.67 u/L
BLOOD UREA NITROGEN [2]: 17 mg/dL
CARBON DIOXIDE [2]: 28.33 mmol/L
CHLORIDE [2]: 101.5 MEQ/L
CHOLESTEROL [2]: 71.33 mg/dL
CREATINE PHOSPHOKINASE [2]: 628.17 u/L
CREATININE [2]: 0.19 mg/dL
GLUCOSE [2]: 177.83 mg/dL
LACTATE DEHYDROGENASE [2]: 500.5 u/L
LIPASE [2]: 9.5 u/L
PHOSPHORUS [2]: 12.3 mg/dL
POTASSIUM [2]: 5.63 MEQ/L
SODIUM [2]: 143.03 MEQ/L
TOTAL BILIRUBIN [2]: 0.2 mg/dL
TOTAL PROTEIN [2]: 6.02 G/DL
URIC ACID [2]: 1.5 mg/dL
ABSOLUTE BASOPHIL [3]: 0 CELLS/uL
ABSOLUTE EOSINOPHIL [3]: 0 CELLS/uL
ABSOLUTE LYMPHOCYTE [3]: 12266.67 CELLS/uL
ABSOLUTE MONOCYTE [3]: 135.33 CELLS/uL
ABSOLUTE SEGMENTED NEUTROPHIL [3]: 664.67 CELLS/uL
BASOPHIL [3]: 0%
EOSINOPHIL [3]: 0%
ERYTHROCYTE COUNT [3]: 5.48 x10E6/uL
HEMATOCRIT [3]: 35.23%
HEMOGLOBIN [3]: 13.73 G/DL
LEUKOCYTE COUNT [3]: 13.07 x10E3/uL
LYMPHOCYTE [3]: 93.33%
MEAN CORPUSCULAR HEMOGLOBIN [3]: 25.1 pg
MEAN CORPUSCULAR HEMOGLOBIN CONCENTRATION [3]: 38.97 G/DL
MEAN CORPUSCULAR VOLUME [3]: 64.3 fL
MONOCYTE [3]: 1.33%
NEUTROPHIL [3]: 5.33%
NUCLEATED RED BLOOD CELLS [3]: 0 /100WBC
PLATELET COUNT [3]: 1157.67 x10E3/uL
ALANINE AMINOTRANSFERASE [3]: 58.33 u/L
ALBUMIN [3]: 4.1 G/DL
ALKALINE PHOSPHATASE [3]: 310 u/L
ASPARTATE AMINOTRANSFERASE [3]: 85.33 u/L
BLOOD UREA NITROGEN [3]: 17.67 mg/dL
CARBON DIOXIDE [3]: 27.67 mmol/L
CHLORIDE [3]: 101.67 MEQ/L
CHOLESTEROL [3]: 69.33 mg/dL
CREATINE PHOSPHOKINASE [3]: 333.33 u/L
CREATININE [3]: 0.16 mg/dL
GLUCOSE [3]: 163 mg/dL
LACTATE DEHYDROGENASE [3]: 104.33 u/L
LIPASE [3]: 10 u/L
PHOSPHORUS [3]: 11.3 mg/dL
POTASSIUM [3]: 6.13 MEQ/L
SODIUM [3]: 142.3 MEQ/L
TOTAL BILIRUBIN [3]: 0.1 mg/dL
TOTAL PROTEIN [3]: 5.6 G/DL
URIC ACID [3]: 1.73 mg/dL
